This note sets out measurements from US20250186391A1, “ORAL COMPLEMENT FACTOR D INHIBITORS” (BioCryst Pharmaceuticals, Inc., priority 2019, published 2025).

What is called IC50 is the concentration that gives 50% inhibition.

Bounds are passed on as bounds.

Sequence of Factor D (P00746 26-253): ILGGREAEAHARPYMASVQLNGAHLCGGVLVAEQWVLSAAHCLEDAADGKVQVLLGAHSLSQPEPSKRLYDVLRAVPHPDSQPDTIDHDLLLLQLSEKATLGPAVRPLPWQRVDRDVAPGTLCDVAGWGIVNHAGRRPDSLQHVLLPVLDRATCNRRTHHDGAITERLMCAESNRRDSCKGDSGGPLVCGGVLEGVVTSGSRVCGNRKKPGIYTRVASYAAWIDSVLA

This test has as its target Factor D (Homo sapiens (Human), UniProt P00746). As to the kind of experiment: Factor D esterolytic assay. The test is classed as biochemical. Particulars: Z-Lys-SBzl substrate, 100 mM HEPES, 500 mM NaCl, pH 7.5, 10% DMSO; tested a minimum of three times; read-out: Measured Ki (IC50) Value for Compounds: IC50. The essentials:
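Chromogenic thioesterase read-out: Z-Lys-SBzl (1.29 mM) hydrolysis by human Factor D, thiol detected with DTNB at 405 nm (690 nm background subtracted) for 600 s. Run in 100 mM HEPES, 500 mM NaCl, pH 7.5, 10% DMSO, substrate added immediately or after room-temperature preincubation. IC50 from percent inhibition versus enzyme alone, n≥3.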
As to `Cc1oc2ccc(-c3cccc(CN)c3)cc2c1COc1ccccc1CC(=O)O` [Compound 124f, 2-(2-((5-(3-(aminomethyl)phenyl)-2-methylbenzofuran-3-yl)methoxy)phenyl)acetic acid], the IC50 was below 1000 nM.
In the case of `CC(C)n1nc(COc2ccccc2CC(=O)O)c2cc(-c3cc(CN)cc(OCc4cccnc4)c3)ccc21` [Compound 243h, 2-(2-((5-(3-(aminomethyl)-5-(pyridin-3-ylmethoxy)phenyl)-1-isopropyl-1H-indazol-3-yl)methoxy)phenyl)acetic acid] it was above 10000 nM; in that of `NCc1cccc(-c2cc(COc3ccccc3CC(=O)O)cc3cc(COc4ccccc4CC(=O)O)oc23)c1` [Compound 7f, 2,2′-((((7-(3-(aminomethyl)phenyl)benzofuran-2,5-diyl)bis(methylene))bis(oxy))bis(2,1-phenylene))diacetic acid], below 1000 nM; in that of `NCc1cccc(-c2ccc3c(c2)c(COc2ccccc2CC(=O)O)nn3C2CC2)c1` [Compound 260c, 2-(2-((5-(3-(aminomethyl)phenyl)-1-cyclopropyl-1H-indazol-3-yl)methoxy)phenyl)acetic acid], below 1000 nM.
In the case of `NCc1cccc(-c2ccc3occ(COc4cc(C5CC5)ccc4CC(=O)O)c3c2)c1` [Compound 111d, 2-(2-((5-(3-(aminomethyl)phenyl)benzofuran-3-yl)methoxy)-4-cyclopropylphenyl)acetic acid] it was below 1000 nM.
`Cn1nc(NC(=O)c2ccccc2CC(=O)O)c2cc(-c3cccc(CN)c3)ccc21` [Compound 74d, 2-(2-((5-(3-(aminomethyl)phenyl)-1-methyl-1H-indazol-3-yl)carbamoyl)phenyl)acetic acid]: the IC50 is below 1000 nM.
In the case of `NCc1cccc(-c2ccc3oc(C(=O)O)c(COc4ccccc4CC(=O)O)c3c2)c1` [Compound 55d, 5-(3-(aminomethyl)phenyl)-3-((2-(carboxymethyl)phenoxy)methyl)benzofuran-2-carboxylic acid] it was below 1000 nM; in that of `NCc1cccc(-c2cccc3ccc(COc4ccccc4CC(=O)O)cc23)c1` [Compound 99d, 2-(2-((8-(3-(aminomethyl)phenyl)naphthalen-2-yl)methoxy)phenyl)acetic acid], above 10000 nM; in that of `NCc1cccc(-c2cc(-c3ccccc3N)c3occ(COc4ccccc4CC(=O)O)c3c2)c1` [Compound 222c, 2-(2-((5-(3-(aminomethyl)phenyl)-7-(2-aminophenyl)benzofuran-3-yl)methoxy)phenyl)acetic acid], below 1000 nM.
Consider `NCc1cccc(-c2cc(Oc3ccccc3)c3occ(COc4ccccc4CC(=O)O)c3c2)c1` [Compound 194f, 2-(2-((5-(3-(aminomethyl)phenyl)-7-phenoxybenzofuran-3-yl)methoxy)phenyl)acetic acid], for which the IC50 was below 1000 nM.
For `NCc1cccc(-c2ccc3cnn(Cc4ccccc4CC(=O)O)c3c2)c1` [Compound 67e, 2-(2-((6-(3-(aminomethyl)phenyl)-1H-indazol-1-yl)methyl)phenyl)acetic acid], the IC50 is below 1000 nM.
In the case of `COc1cc(-c2cccc(CN)c2)cc2c(COc3ccccc3CC(=O)O)coc12` [Compound 18e, 2-(2-((5-(3-(aminomethyl)phenyl)-7-methoxybenzofuran-3-yl)methoxy)phenyl)acetic acid] it was below 1000 nM.
For `NCc1cccc(-c2ccc3occ(COc4cc(OC(F)(F)F)ccc4CC(=O)O)c3c2)c1` [Compound 110d, 2-(2-((5-(3-(aminomethyl)phenyl)benzofuran-3-yl)methoxy)-4-(trifluoromethoxy)phenyl)acetic acid], the IC50 is below 1000 nM.
Turning to `COc1ccc(CC(=O)O)c(OCc2coc3ccc(-c4ccnc(CN)c4)cc23)c1` [Compound 68e, 2-(2-((5-(2-(aminomethyl)pyridin-4-yl)benzofuran-3-yl)methoxy)-4-methoxyphenyl)acetic acid], the half-inhibitory concentration (IC50) was below 1000 nM.
